Reference: PMC8125089, “Synthesis, Structure, Carbohydrate Enzyme Inhibition, Antioxidant Activity, In Silico Drug-Receptor Interactions and Drug-Like Profiling of the 5-Styryl-2-Aminochalcone Hybrids” (Molecules, 2021)
Read-outs that look alike come from different tables or passages of the source.

Tests used:
[1] = NO free radical scavenging assay (sodium nitroprusside, Griess reaction); conditions: mean ± SD of three independent experiments
From the text: (§1) Reduced or lack of antioxidant activity of these compounds was attributed to the presence of intramolecular N-H···O hydrogen bond between amino and kenone group of the 2-aminochalcones and their sulfanamido derivatives which is envisaged to deactivate the unsaturated moiety. […] A combination of the styryl and the electrophilic α,β-unsaturated carbonyl arms on the same molecular framework encouraged us to evaluate the test compounds for antioxidant properties through the DPPH and NO radical scavenging assays. […] Compound 2a has potential to inhibit both α-glucosidase and α-amylase activities, and to reduce oxidative stress. […] The observed free radical scavenging activities of these molecular hybrids is presumably due to the presence of styryl arm on the intramolecularly hydrogen bonded 2-aminochalcone scaffold.
Nitric oxide was generated from sodium nitroprusside and measured by Griess’ reaction following the literature method. The experiment was done in triplicate with ascorbic acid (vitamin C) used as a positive control for the assay. In a 96 well plate, 5 μL of the test compounds (0.1, 0.5, 1.0, 5.0 and 10.0 μM in methanol) or the positive control were mixed with 5 μL of 10 mM sodium nitroprusside prepared in phosphate buffered saline (pH = 7.4) and allowed to incubate at room temperature for 2.5 h. Afterwards, 30 μL of the Griess reagent (a mixture of 0.2% N-(1-naphthyl)ethylenediamine dihydrochloride and 2% sulfanilamide in […]) was added to each well and the mixtures were and allowed to stand at room temperature for 30 min. Five absorbance readings were recorded at 546 nm using Varioskan flash microplate spectrophotometer reader.

[2] = DPPH radical scavenging assay; conditions: free radical scavenging; mean ± SD of three independent experiments
From the text: as §1
The antioxidant activities of the test compounds against ascorbic acid (Sigma Aldrich, Saint Louis, Missouri, USA) as a positive control were evaluated using 2,2-diphenyl-1-picrylhydrazyl (DPPH) radical scavenging assay developed by Zhu et al. as described in our previous study. Triplicate solutions (20 µL) of the test compounds and ascorbic acid in DMSO (final concentrations: 5, 10, 25, 50, and 100 µM) were added into each designated well of a 96-well plate. A solution of 0.20 mM DPPH (20 µL) in methanol was added to each well, and the 96-well plate was wrapped with aluminum foil and incubated in the dark for 45 min. Five absorbance readings were recorded at 512 nm using Varioskan flash microplate spectrophotometer reader. The average values obtained from the absorbance readings were used to determine the IC50 and standard deviation values.

α-amylase = test: α-Amylase inhibition assay (α-Amylase Inhibitor Screening Kit); type: biochemical; conditions: mean ± SD of three independent experiments
Experimental: The α-amylase assay was performed in triplicate using a 96-well plate following the procedure by the manufacturer as outlined in the α-Amylase Inhibitor Screening Kit (Catalog No. K482; Bio Vision). […] For inhibitor control (10 µL of α-amylase inhibitor and 40 µL of assay buffer were added to 3 wells), enzyme control (50 µL of assay buffer was added to three wells) and 50 µL of the test compounds were added into the remaining wells. A solution of α-amylase enzyme (50 µL) prepared by adding 490 µL of assay buffer to 10 µL of α-amylase enzyme was added to each of the wells containing the reaction mixture to initiate the reaction. The plate was incubated for 10 min at room temperature in the dark. Five different absorbance readings were recorded for each triplicate run at a wavelength of 405 nm using Varioskan flash microplate spectrophotometer (Thermo Scientific, Waltham, MA, USA). The IC50 and SD values were calculated using graph pad prism.

A549 cells = test: MTT cytotoxicity assay on A549 cells; type: cell-based, human; conditions: 24 h treatment
Experimental: (§2) Metabolic diseases such as diabetes require a stable long-term therapy accompanied by well tolerated and low toxicity, and this encouraged us to evaluate the safety profile of 2a and 3e as potential antidiabetic agents at least in vitro. The compounds were evaluated for cytotoxicity against the normal monkey kidney cells (Vero cells) and the adenocarcinomic human epithelial (A549) cell line using the 3-(4,5-dimethylthiazol-2-yl)-2, 5-diphenyltetrazolium (MTT) assay.
(§3) The cytotoxicity activity of compounds 2a and 3e was evaluated against doxorubicin (positive control) using the 3-(4,5-dimethylthiazol-2-yl)-2,5-diphenyltetrazolium bromide (MTT) assay following a modification of a literature method by Mosmann. The Vero and A549 cells were maintained in Dulbecco′s modified Eagle′s medium (DMEM; Gibco) supplemented with 10% Fetal bovine serum (FBS) and 1% penicillin/streptomycin in culture flasks and incubated at 37 °C in 5% CO2. When the cells reached 85% confluency, they were detached using 2% trypsin. Cell count was performed using a handheld automated cell counter (Scapter 3.0™, Merck). The cells were seeded at 1 × 10^5 cells/well and incubated overnight to allow cell attachment. After 24 h, the cells were treated with different concentrations (0, 2.5, 5, 10, 25, 50, 100 µM) of the test compounds and the reference stand. The cells were incubated for 24 h followed by treatment with 20 µL of MTT solution (5 mg/mL). After 4 h incubation period, DMSO (100 µL) was added to each well to dissolve the formazan crystals. Five absorbance readings were recorded at 517 nm using Varioskan flash microplate spectrophotometer reader.

[3] = target: yeast α-glucosidase from Saccharomyces cervisiae (Saccharomyces cerevisiae, UniProt P53341); test: biochemical
Sequence of yeast α-glucosidase from Saccharomyces cervisiae (P53341 whole entry): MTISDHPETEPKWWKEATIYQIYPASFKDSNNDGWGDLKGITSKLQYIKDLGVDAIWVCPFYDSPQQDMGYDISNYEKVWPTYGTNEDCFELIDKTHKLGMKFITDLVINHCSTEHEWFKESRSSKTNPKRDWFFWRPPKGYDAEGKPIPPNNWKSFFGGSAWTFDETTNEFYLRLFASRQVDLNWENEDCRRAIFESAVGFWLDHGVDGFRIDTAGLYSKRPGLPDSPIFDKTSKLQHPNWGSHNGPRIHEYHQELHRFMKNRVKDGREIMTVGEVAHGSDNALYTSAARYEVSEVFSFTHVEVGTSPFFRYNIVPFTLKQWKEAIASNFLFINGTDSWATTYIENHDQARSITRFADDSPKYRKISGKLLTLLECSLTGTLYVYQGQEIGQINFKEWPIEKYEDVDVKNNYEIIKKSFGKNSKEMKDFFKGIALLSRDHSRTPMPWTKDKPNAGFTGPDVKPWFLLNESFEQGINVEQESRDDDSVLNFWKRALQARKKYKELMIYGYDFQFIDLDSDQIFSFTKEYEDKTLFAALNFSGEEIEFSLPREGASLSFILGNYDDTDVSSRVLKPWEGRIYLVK
Experimental: All the tests and analyses were performed in triplicates following a modified published protocol described in our previous study. […] 2.5, 5, 10, 25 and 50 µM. α-Glucosidase solution (0.48 u/mL, 20 µL), phosphate buffer (100 mM, pH 6.8; 30 µL) and the test sample (20 µL) as well as the reference standard were added in the designated wells, and the reaction mixtures were incubated at 37 °C for 10 min. 2 mM p-nitrophenyl-α-D-glucopyranoside (20 µL) was added to each of the wells containing reaction mixture to initiate the reaction. The reaction was pre-incubated for 30 min at 37 °C. The reaction was stopped by the addition of 20 μL of a solution of sodium carbonate (200 mM) to each well. Five absorbance readings were recorded for each triplicate run at a wavelength of 400 nm using Varioskan flash microplate spectrophotometer (Thermo Scientific, Waltham, MA, USA). The average values obtained from the readings were used to determine the IC50 and standard deviation values. The values were calculated by the nonlinear regression analysis and expressed as the mean SD of three distinct experiments using Graph Pad Prism software.

α-glucosidase = α-glucosidase (Saccharomyces cerevisiae, UniProt P53341); test: Enzyme kinetic studies (Lineweaver-Burk and Dixon plots); type: biochemical; conditions: α-glucosidase
Sequence of α-glucosidase (P53341 whole entry): as above
Experimental: The Lineweaver-Burk plot of 1/V versus 1/[S] in the presence of different concentrations of compound 2a in the case of α-glucosidase gave a series of straight lines that intersect on the x-axis (Figure 3a). […] The compound probably binds to the active site and other allosteric sites on the enzyme.
Enzyme kinetics studies were performed on compounds 2a and 3e with increasing inhibitor and substrate concentrations. In the experimental procedure, inhibitors concentrations of 0.1, 0.5, 1, 2.5 µM, and final substrate concentration were 0.1, 0.5, 1 and 5 mM were used. 5 μL of the inhibitor and 2 μL of the enzyme (α-glucosidase) were added to each well of the 96-well plate. The reaction was incubated for 20 min at room temperature. 18 μL of the substrate, PNPG (4-nitrophenyl α-D-glucopyranoside) was then added and absorbance readings recorded after every 2 min at wavelength of 400 nm using a Varioskan flash microplate spectrophotometer reader. Lineweaver-Burk plot (the inverse of velocity (1/v) against the inverse of the substrate concentration (1/[S]) were used to determining the type of inhibition, while the inhibitor constant was obtained from the Dixon plot (the inverse of velocity (1/v) against concentration of inhibitor at each substrate concentration)

Vero cells = test: MTT cytotoxicity assay on Vero cells; type: cell-based; conditions: monkey, 24 h treatment
Experimental: as §2
as §3, with “After 24 h, the cells were treated with different concentrations (0, 2.5, 5, 10, 25, 50, 100 µM) of the test compounds and the reference stand. The cells were incubated for 24 h followed by treatment with 20 µL of MTT solution (5 mg/mL). After 4 h incubation period, DMSO (100 µL) was added to each well to dissolve the formazan crystals.” left out

[4] = mean ± SD of three independent experiments, pH 6.8, 37 °C, read-out: IC50 (SD) α-Glucosidase

O=C1O[C@H]([C@@H](O)CO)C(O)=C1O [Ascorbic acid, reference compound]
IC50 [1]: 6.14 ± 0.21 µM
IC50 [2]: 4.2 ± 0.27 µM

CC(=O)c1cc(/C=C/c2ccccc2)ccc1N [Compound 2a, (E)-1-(2-Amino-5-styrylphenyl)ethan-1-one]
melting point: 119 to 120 °C
IC50 (α-amylase): 2.3 ± 0.2 µM
IC50 at 24 h (A549 cells; human, A549 cells): 65.7 ± 0.14 µM
IC50 [3, 4]: 5.4 ± 0.1 µM
Ki (α-glucosidase; PNPG substrate, read-out: Ki (Dixon plot)): 0.3 ± 0.04 µM
mode of inhibition (α-glucosidase; Lineweaver-Burk and Dixon plots): non-competitive mode of inhibition
IC50 at 24 h (Vero cells): 164.6 ± 0.59 µM
IC50 [1]: 8.3 ± 0.22 µM
IC50 [2]: 7.1 ± 0.32 µM

CC(=O)c1cc(/C=C/c2ccc(F)cc2)ccc1N [Compound 2b, (E)-1-(2-Amino-5-(4-fluorostyryl)phenyl)ethan-1-one]
melting point: 149 to 150 °C
IC50 (α-amylase): 19.3 ± 0.42 µM
IC50 [3]: 12.7 ± 0.16 µM
IC50 [1]: 7.2 ± 0.4 µM
IC50 [2]: 15.8 ± 0.21 µM

CC(=O)c1cc(/C=C/c2ccc(Cl)cc2)ccc1N [Compound 2c, (E)-1-(2-Amino-5-(4-chlorostyryl)phenyl)ethan-1-one]
melting point: 137 to 138 °C
IC50 (α-amylase): 5.8 ± 0.51 µM
IC50 [3]: 15.9 ± 0.34 µM
IC50 [1]: 11.6 ± 0.43 µM
IC50 [2]: 10.4 ± 0.15 µM

COc1ccc(/C=C/c2ccc(N)c(C(C)=O)c2)cc1 [Compound 2d, (E)-1-(2-Amino-5-(4-methoxystyryl)phenyl)ethan-1-one]
melting point: 139 to 140 °C
IC50 (α-amylase): 9 ± 0.31 µM
IC50 [3]: 30.7 ± 0.42 µM
IC50 [1]: 25.9 ± 0.61 µM
IC50 [2]: 9.3 ± 0.23 µM

Nc1ccc(/C=C/c2ccccc2)cc1C(=O)/C=C/c1cccc(F)c1 [Compound 3a, (E)-1-(2-Amino-5-((E)-styryl)phenyl)-3-(3-fluorophenyl)prop-2-en-1-one]
melting point: 129 to 130 °C
IC50 (α-amylase): 10.7 ± 0.21 µM
IC50 [3]: 17.8 ± 0.32 µM
IC50 [1]: 18.9 ± 0.54 µM
IC50 [2]: 21.6 ± 0.32 µM

Nc1ccc(/C=C/c2ccc(F)cc2)cc1C(=O)/C=C/c1cccc(F)c1 [Compound 3b, (E)-1-(2-Amino-5-((E)-4-fluorostyryl)phenyl)-3-(3-fluorophenyl)prop-2-en-1-one]
melting point: 175 to 177 °C
IC50 (α-amylase): 15.6 ± 0.6 µM
IC50 [3, 4]: 6.1 ± 0.24 µM
IC50 [1]: 5.3 ± 0.34 µM
IC50 [2]: 6.6 ± 0.33 µM

Nc1ccc(/C=C/c2ccc(Cl)cc2)cc1C(=O)/C=C/c1cccc(F)c1 [Compound 3c, (E)-1-(2-Amino-5-((E)-4-Chlorostyryl)phenyl)-3-(3-fluorophenyl)prop-2-en-1-one]
melting point: 187 to 188 °C
IC50 (α-amylase): 2.4 ± 0.1 µM
IC50 [3]: 12.6 ± 0.31 µM
IC50 [1]: 10.6 ± 0.3 µM
IC50 [2]: 15.3 ± 0.1 µM

COc1ccc(/C=C/c2ccc(N)c(C(=O)/C=C/c3cccc(F)c3)c2)cc1 [Compound 3d, (E)-1-(2-Amino-5-((E)-4-methoxystyryl)phenyl)-3-(3-fluorophenyl)prop-2-en-1-one]
IC50 (α-amylase): 7 ± 0.45 µM
IC50 [3, 4]: 9.4 ± 0.5 µM
IC50 [1]: 7.9 ± 0.28 µM
IC50 [2]: 3.9 ± 0.21 µM

Nc1ccc(/C=C/c2ccc(F)cc2)cc1C(=O)/C=C/c1ccc(F)cc1 [Compound 3f, (E)-1-(2-Amino-5-((E)-4-fluorostyryl)phenyl)-3-(4-fluorophenyl)prop-2-en-1-one]
IC50 (α-amylase): 9.5 ± 0.41 µM
IC50 [3, 4]: 6.9 ± 0.37 µM
IC50 [1]: 8.8 ± 0.33 µM
IC50 [2]: 18.5 ± 0.37 µM

Nc1ccc(/C=C/c2ccc(Cl)cc2)cc1C(=O)/C=C/c1ccc(F)cc1 [Compound 3g, (E)-1-(2-Amino-5-((E)-4-chlorostyryl)phenyl)-3-(4-fluorophenyl)prop-2-en-1-one]
melting point: 197 to 198 °C
IC50 (α-amylase): 1.7 ± 0.25 µM
IC50 [3]: 19.2 ± 0.47 µM
IC50 [1]: 15.1 ± 0.19 µM
IC50 [2]: 5.2 ± 0.53 µM

COc1ccc(/C=C/c2ccc(N)c(C(=O)/C=C/c3ccc(F)cc3)c2)cc1 [Compound 3h, (E)-1-(2-Amino-5-((E)-4-methoxystyryl)phenyl)-3-(4-fluorophenyl)prop-2-en-1-one]
melting point: 153 to 154 °C
IC50 (α-amylase): 7.6 ± 0.2 µM
IC50 [3]: 10.5 ± 0.18 µM
IC50 [1]: 20.2 ± 0.23 µM
IC50 [2]: 25.8 ± 0.43 µM

COc1cccc2c1C(=O)c1c(O)c3c(c(O)c1C2=O)C[C@@](O)(C(=O)CO)C[C@@H]3O[C@H]1C[C@H](N)[C@H](O)[C@H](C)O1 [Doxorubicin, reference compound]
IC50 (A549 cells): 1.14 ± 0.23 µM
